Experimental data from US9296741B2, “Bromodomain inhibitors” (priority 2012, dated 2016).

Legend:
[1] = system: breast cancer cell line MX-1; test: MX-1 cell line proliferation assay; assay type: cell-based, human; details: Homo sapiens, MX1, 72 h; MX-1 cells, 3-day proliferation, Cell Titer Glo; read-out: Cellular proliferation: EC50
[2] = molecular target: human BRD4 second bromodomain (BDII_E352-M457) (Homo sapiens (Human), UniProt O60885); test: TR-FRET bromodomain binding assay, BRD4 second bromodomain
[3] = molecular target: human BRD4 first bromodomain (BDI_K57-E168) (Homo sapiens (Human), UniProt O60885); test: TR-FRET bromodomain binding assay, BRD4 first bromodomain
[4] = Rat liver microsome stability assay; assay type: in vitro ADME; details: rat liver microsomes (male Sprague-Dawley), 0.5 μM test compound, pH 7.4, 37° C.; for Stability in rat liver microsomes (t1/2 in minutes): […] microsomal protein; for half-life at 0.5 μM: 0.25 mg/mL microsomal protein, read-out: Stability in rat liver microsomes (t1/2 in minutes)
[5] = Human liver microsome stability assay; assay type: in vitro ADME; details: both sexes, human, microsomes, pH 7.4

Row | Structure (SMILES) | EC50 [1] [µM] | Ki [2] [µM] | Ki [3] [µM] | Stability in rat liver microsomes (t1/2 in minutes) [4] [min] | half-life at 0.5 μM [5] [min] | half-life at 0.5 μM [4] [min]
1 | Cn1cc(-c2cc([N+](=O)[O-])ccc2Oc2ccccc2)c2cc[nH]c2c1=O [Example 2, 6-methyl-4-(5-nitro-2-phenoxyphenyl)-1,6-dihydro-7H-pyrrolo[2,3-c]pyridin-7-one] | 0.86 | 0.178 | 0.529 | – | – | –
2 | Cn1cc(-c2cc(N)ccc2Oc2ccccc2)c2cc[nH]c2c1=O [Example 3, 4-(5-amino-2-phenoxyphenyl)-6-methyl-1,6-dihydro-7H-pyrrolo[2,3-c]pyridin-7-one] | 0.185 | – | – | – | – | –
3 | CCOC(=O)c1ccc(Oc2ccccc2)c(-c2cn(C)c(=O)c3[nH]ccc23)c1 [Example 9, ethyl 3-(6-methyl-7-oxo-6,7-dihydro-1H-pyrrolo[2,3-c]pyridin-4-yl)-4-phenoxybenzoate] | 0.113 | – | – | 1 | – | –
4 | Cn1cc(-c2cc(Cn3cccn3)ccc2Oc2ccccc2)c2cc[nH]c2c1=O [Example 30, 6-methyl-4-[2-phenoxy-5-(1H-pyrazol-1-ylmethyl)phenyl]-1,6-dihydro-7H-pyrrolo[2,3-c]pyridin-7-one] | 0.562 | – | – | – | – | –
5 | Cn1cc(-c2cc(NC(=O)CC(F)(F)F)ccc2Oc2ccc(F)cc2F)c2cc[nH]c2c1=O [Example 38, N-[4-(2,4-difluorophenoxy)-3-(6-methyl-7-oxo-6,7-dihydro-1H-pyrrolo[2,3-c]pyridin-4-yl)phenyl]-3,3,3-trifluoropropanamide] | – | 0.257 | 0.148 | – | 16.8 | 25
6 | Cn1cc(-c2cc(NC(=O)C(C)(C)C)ccc2Oc2ccc(F)cc2F)c2cc[nH]c2c1=O [Example 39, N-[4-(2,4-difluorophenoxy)-3-(6-methyl-7-oxo-6,7-dihydro-1H-pyrrolo[2,3-c]pyridin-4-yl)phenyl]-2,2-dimethylpropanamide] | – | 0.124 | 0.112 | – | 9.7 | 8
7 | Cn1cc(-c2cc(C(=O)N3CCS(=O)(=O)CC3)ccc2Oc2ccc(F)cc2F)c2cc[nH]c2c1=O [Example 52, 4-{2-(2,4-difluorophenoxy)-5-[(1,1-dioxidothiomorpholin-4-yl)carbonyl]phenyl}-6-methyl-1,6-dihydro-7H-pyrrolo[2,3-c]pyridin-7-one] | 0.309 | – | – | – | – | –
8 | Cn1nc(-c2cc(NS(C)(=O)=O)ccc2Oc2ccccc2)c2cc(C(=O)O)[nH]c2c1=O [Example 77, 6-methyl-4-{5-[(methylsulfonyl)amino]-2-phenoxyphenyl}-7-oxo-6,7-dihydro-1H-pyrrolo[2,3-d]pyridazine-2-carboxylic acid] | > 3 | – | – | – | – | –
9 | CN1CCN(CCNC(=O)c2cc3c(-c4cc(NS(C)(=O)=O)ccc4Oc4ccccc4)nn(C)c(=O)c3[nH]2)CC1 [Example 79, 6-methyl-N-[2-(4-methylpiperazin-1-yl)ethyl]-4-{5-[(methylsulfonyl)amino]-2-phenoxyphenyl}-7-oxo-6,7-dihydro-1H-pyrrolo[2,3-d]pyridazine-2-carboxamide] | 0.887 | – | – | – | – | –
10 | CN(C)S(=O)(=O)c1cnc(OC2CCOC2)c(-c2cn(C)c(=O)c3[nH]ccc23)c1 (stereo not drawn) [Example 110, N,N-dimethyl-5-(6-methyl-7-oxo-6,7-dihydro-1H-pyrrolo[2,3-c]pyridin-4-yl)-6-(tetrahydrofuran-3-yloxy)pyridine-3-sulfonamide] | 0.0324 | – | – | – | – | –
11 | Cn1cc(-c2cc(C(=O)Nc3ncccn3)ccc2Oc2ccc(F)cc2F)c2cc[nH]c2c1=O [Example 116, 4-(2,4-difluorophenoxy)-3-(6-methyl-7-oxo-6,7-dihydro-1H-pyrrolo[2,3-c]pyridin-4-yl)-N-(pyrimidin-2-yl)benzamide] | – | 0.0891 | 0.105 | – | – | –
12 | COc1ccc(NC(=O)c2ccc(Oc3ccc(F)cc3F)c(-c3cn(C)c(=O)c4[nH]ccc34)c2)c(OC)n1 [Example 117, 4-(2,4-difluorophenoxy)-N-(2,6-dimethoxypyridin-3-yl)-3-(6-methyl-7-oxo-6,7-dihydro-1H-pyrrolo[2,3-c]pyridin-4-yl)benzamide] | – | 0.486 | 2.3 | – | 34 | 36
13 | COc1ccc2[nH]cc(CCNC(=O)c3ccc(Oc4ccc(F)cc4F)c(-c4cn(C)c(=O)c5[nH]ccc45)c3)c2c1 [Example 124, 4-(2,4-difluorophenoxy)-N-[2-(5-methoxy-1H-indol-3-yl)ethyl]-3-(6-methyl-7-oxo-6,7-dihydro-1H-pyrrolo[2,3-c]pyridin-4-yl)benzamide] | – | 0.169 | 0.32 | – | 2 | 4
14 | COc1cc(CNC(=O)c2ccc(Oc3ccc(F)cc3F)c(-c3cn(C)c(=O)c4[nH]ccc34)c2)cc(OC)c1OC [Example 130, 4-(2,4-difluorophenoxy)-3-(6-methyl-7-oxo-6,7-dihydro-1H-pyrrolo[2,3-c]pyridin-4-yl)-N-(3,4,5-trimethoxybenzyl)benzamide] | – | 0.174 | 0.183 | – | – | –
15 | Cn1cc(-c2cc(C(=O)NCCc3ccc4c(c3)OCO4)ccc2Oc2ccc(F)cc2F)c2cc[nH]c2c1=O [Example 132, N-[2-(1,3-benzodioxol-5-yl)ethyl]-4-(2,4-difluorophenoxy)-3-(6-methyl-7-oxo-6,7-dihydro-1 H-pyrrolo[2,3-c]pyridin-4-yl)benzamide] | – | 0.344 | 0.238 | – | – | –
16 | Cn1cc(-c2cc(C(=O)NC3CCN(C(=O)OC(C)(C)C)CC3)ccc2Oc2ccc(F)cc2F)c2cc[nH]c2c1=O [Example 136, tert-butyl 4-{[4-(2,4-difluorophenoxy)-3-(6-methyl-7-oxo-6,7-dihydro-1H-pyrrolo[2,3-c]pyridin-4-yl)benzoyl]amino}piperidine-1-carboxylate] | – | 0.295 | 0.234 | – | – | –
17 | Cn1cc(-c2cc(S(C)(=O)=O)ccc2Oc2cc(C(F)(F)F)ccc2Cl)c2cc[nH]c2c1=O [Example 163, 4-{2-[2-chloro-5-(trifluoromethyl)phenoxy]-5-(methylsulfonyl)phenyl}-6-methyl-1,6-dihydro-7H-pyrrolo[2,3-c]pyridin-7-one] | 0.295 | – | – | – | – | –
18 | Cn1cc(-c2cc(S(C)(=O)=O)ccc2Oc2cccc3c2CCC3=O)c2cc[nH]c2c1=O [Example 175, 6-methyl-4-{5-(methylsulfonyl)-2-[(1-oxo-2,3-dihydro-1H-inden-4-yl)oxy]phenyl}-1,6-dihydro-7H-pyrrolo[2,3-c]pyridin-7-one] | – | 0.0178 | 0.0258 | – | – | –
19 | Cn1cc(-c2cc(S(C)(=O)=O)ccc2Oc2ccc3c(c2)CCC3=O)c2cc[nH]c2c1=O [Example 181, 6-methyl-4-{5-(methylsulfonyl)-2-[(1-oxo-2,3-dihydro-1H-inden-5-yl)oxy]phenyl}-1,6-dihydro-7H-pyrrolo[2,3-c]pyridin-7-one] | – | 0.0224 | 0.0305 | – | – | –
20 | Cn1cc(-c2cc(S(C)(=O)=O)ccc2Oc2ccc3c(c2)C(=O)CC3)c2cc[nH]c2c1=O [Example 182, 6-methyl-4-{5-(methylsulfonyl)-2-[(3-oxo-2,3-dihydro-1H-inden-5-yl)oxy]phenyl}-1,6-dihydro-7H-pyrrolo[2,3-c]pyridin-7-one] | – | 0.0097 | 0.019 | – | – | –
21 | Cn1cc(-c2cc(S(C)(=O)=O)ccc2Oc2ccccc2C#N)c2cc[nH]c2c1=O [Example 183, 2-[2-(6-methyl-7-oxo-6,7-dihydro-1H-pyrrolo[2,3-c]pyridin-4-yl)-4-(methylsulfonyl)phenoxy]benzonitrile] | – | 0.0198 | 0.0412 | – | – | –
22 | Cn1cc(-c2cc(S(C)(=O)=O)ccc2Oc2cccc(Cl)c2F)c2cc[nH]c2c1=O [Example 184, 4-[2-(3-chloro-2-fluorophenoxy)-5-(methylsulfonyl)phenyl]-6-methyl-1,6-dihydro-7H-pyrrolo[2,3-c]pyridin-7-one] | 0.0788 | – | – | – | – | –
23 | Cn1cc(-c2cc(S(C)(=O)=O)ccc2Oc2cccc3ccccc23)c2cc[nH]c2c1=O [Example 185, 6-methyl-4-[5-(methylsulfonyl)-2-(naphthalen-1-yloxy)phenyl]-1,6-dihydro-7H-pyrrolo[2,3-c]pyridin-7-one] | – | 0.0122 | 0.0345 | – | – | –
24 | Cn1cc(-c2cc(S(C)(=O)=O)ccc2Oc2ccc(Cl)c(F)c2)c2cc[nH]c2c1=O [Example 189, 4-[2-(4-chloro-3-fluorophenoxy)-5-(methylsulfonyl)phenyl]-6-methyl-1,6-dihydro-7H-pyrrolo[2,3-c]pyridin-7-one] | – | 0.023 | 0.0304 | – | 34 | 55
25 | Cn1cc(-c2ccccc2Cc2ccccc2)c2cc[nH]c2c1=O [Example 195, 4-(2-benzylphenyl)-6-methyl-1,6-dihydro-7H-pyrrolo[2,3-c]pyridin-7-one] | – | 1.02 | 5.5 | 1 | 13 | –
26 | Cc1cccc(OCC2CC2)c1-c1cn(C)c(=O)c2[nH]ccc12 [Example 247, 4-[2-(cyclopropylmethoxy)-6-methylphenyl]-6-methyl-1,6-dihydro-7H-pyrrolo[2,3-c]pyridin-7-one] | – | 3 | 1.1 | – | – | –
27 | Cc1c(NS(C)(=O)=O)ccc(OCC2CC2)c1-c1cn(C)c(=O)c2[nH]ccc12 [Example 262, N-[4-(cyclopropylmethoxy)-2-methyl-3-(6-methyl-7-oxo-6,7-dihydro-1H-pyrrolo[2,3-c]pyridin-4-yl)phenyl]methanesulfonamide] | – | 0.489 | 0.125 | – | > 120 | 25
28 | Cn1cc(-c2cc(C(F)(F)F)ccc2Oc2ccc(F)cc2F)c2cc[nH]c2c1=O [Example 275, 4-[2-(2,4-difluorophenoxy)-5-(trifluoromethyl)phenyl]-6-methyl-1,6-dihydro-7H-pyrrolo[2,3-c]pyridin-7-one] | – | 1.13 | 0.526 | – | – | –
